Reference: patent US20130131008A1, “LIPOPHILIC MONOPHOSPHORYLATED DERIVATIVES AND NANOPARTICLES” (BOARD OF REGENTS, THE UNIVERSITY OF TEXAS SYSTEM, priority 2011, published 2013)

Key:
CCRF-CEM cells = experiment: In vitro cytotoxicity assay (MTT), 72 h; assay type: cell-based, human; conditions: 72 h incubation
Text: (§1) Human leukemia cell line CCRF-CEM (CCL-119), human pancreatic cancer cell lines PANC-1 (CRL-1469), MIA PaCa-2 (CRL-1420), and BxPC-3 (CRL-1687), human breast adenocarcinoma cell line MCF-7 (HTB-22), and mouse lung cancer cell line TC-1 (CRL-2785) were from the American Type Culture Collection (Rockville, Md.). CCRF-CEM-AraC-8C cells (hENT1 deficient) and CCRF-CEM/dCK^−/− cells (dCK deficient) were kindly provided by Dr. Buddy Ullmann (Oregon Health & Science University, Portland, Oreg.) and Dr. Margaret Black (Washington State University, Pullman, Wash.), respectively. L1210 wt and L1210 10K were kindly supplied by Dr. Lars Petter Jordheim (Université Claude Bernard Lyon I, Lyon, France). TC-1-GR cells were previously developed in our lab. CCRF-CEM, CCRF-CEM-AraC-8C, CCRF-CEM/dCK^−/−, L1210 wt, L1210 10K, TC-1, and TC-1-GR cells were cultured in RPMI 1640 medium. MCF-7 and PANC-1 cells were cultured in Dulbecco's modified Eagle medium (DMEM), MIA PaCa-2 cells were cultured in DMEM medium with 2.5% horse serum. All media were supplemented with 10% fetal bovine serum (FBS), 100 U/mL of penicillin, and 100 μg/mL of streptomycin (all from Invitrogen, Carlsbad, Calif.).
(§2) Cells (5,000/well) were seeded in 96-well plates. After overnight incubation, they were treated with various concentrations of gemcitabine HCl, gemcitabine derivatives, or gemcitabine derivatives in nanoparticles at 37° C., 5% CO2. TC-1 and TC-1-GR cells were incubated for 48 h. CCRF-CEM, CCRF-CEM-AraC-8C, CCRF-CEM/dCK^−/−, L1210 wt, L1210 10K, and MCF-7 cells were incubated for 72 h, and MIA PaCa-2 and PANC-1 for 96 h. Gemcitabine HCl was dissolved in phosphate-buffered saline (PBS), and gemcitabine derivatives were dissolved in dimethyl sulfoxide (DMSO). […] The number of viable cells after the incubation was determined using an MTT assay. Briefly, 3-(4,5-dimethylthiazol-2-yl)-2,5-diphenyltetrazolium bromide (20 μl, 5 mg/mL) was added in each well and incubated for 3 h. Formazan crystals were solubilized with acidified isopropanol (150 μl) (for CCRF-CEM, CCRF-CEM-AraC-8C, CCRF-CEM/dCK^−/−, L1210 wt, and L1210 10K cells) or DMSO (150 μl) (for TC-1, TC-1-GR, MCF-7, PANC-1, and MIA PaCa-2). Absorbance was measured using a BioTek Synergy™ HT Multi-Mode Microplate Reader (BioTek Instruments, Winooski, Vt.) at 570 nm and 630 nm. The fraction of affected (dead) cells (Fa) and the fraction of unaffected (live) cells (Fu) at every dose were calculated, and the Log(Fa/Fu) values were plotted against the Log(concentration of gemcitabine). IC50 was the dose at Log(Fa/Fu)=0, See e.g., Chou, T. C. & Talalay, P., 1984, Adv. Enzyme Regul. 22:27-55. The experiment was repeated at least three times.

TC-1 cells = experiment: In vitro cytotoxicity assay (MTT), 48 h; assay type: cell-based; conditions: 48 h incubation
Text: as §1, §2

TC-1-GR cells = experiment: cells; assay type: cell-based; conditions: for IC50: MTT, 48 h incubation, RRM1 over-expressing
Text: as §1, §2

MIA PaCa-2 cells = experiment: In vitro cytotoxicity assay (MTT), 96 h; assay type: cell-based, human; conditions: 96 h incubation
Text: as §1, §2

PANC-1 cells = experiment: In vitro cytotoxicity assay (MTT), 96 h, RRM2 over-expressing cells; assay type: cell-based, human; conditions: for IC50: MTT, 96 h incubation, RRM2 over-expressing
Text: as §1, §2

CCRF-CEM-AraC-8C cells = experiment: In vitro cytotoxicity assay (MTT), 72 h, hENT1 deficient cells; assay type: cell-based, human; conditions: for IC50: MTT, 72 h incubation, hENT1 deficient
Text: as §1, §2

[1] = Solubility observations (DMSO, water); assay type: physicochemical; conditions: for the in vitro cytotoxicity assay
CCRF-CEM/dCK−/− cells = experiment: In vitro cytotoxicity assay (MTT), 72 h, dCK deficient cells; assay type: cell-based, human; conditions: MTT, 72 h incubation; dCK deficient
Text: as §1
Cells (5,000/well) were seeded in 96-well plates. After overnight incubation, they were treated with various concentrations of gemcitabine HCl, gemcitabine derivatives, or gemcitabine derivatives in nanoparticles at 37° C., 5% CO2. TC-1 and TC-1-GR cells were incubated for 48 h. CCRF-CEM, CCRF-CEM-AraC-8C, CCRF-CEM/dCK^−/−, L1210 wt, L1210 10K, and MCF-7 cells were incubated for 72 h, and MIA PaCa-2 and PANC-1 for 96 h. […] The number of viable cells after the incubation was determined using an MTT assay. […] Absorbance was measured using a BioTek Synergy™ HT Multi-Mode Microplate Reader (BioTek Instruments, Winooski, Vt.) at 570 nm and 630 nm. The fraction of affected (dead) cells (Fa) and the fraction of unaffected (live) cells (Fu) at every dose were calculated, and the Log(Fa/Fu) values were plotted against the Log(concentration of gemcitabine). […]

B16-F10 melanoma tumor = experiment: Antitumor activity of GemC18/PEG-C18 micelles in mice with B16-F10 tumors (Example 20); assay type: in vivo, mouse; conditions: C57BL/6 mice, tail vein injection, 0.283 mg GemHCl or molar equivalent GemC18; 2 doses (micelles 3 doses), 3 days apart
Description: The in vivo antitumor activity of GemC18/PEG-C18 micelles was evaluated in C57BL/6 mice with subcutaneously inoculated B16-F10 cells (5.0×10^5/mouse) in the right flank. Treatments were given 6 days after tumor cell inoculation by tail vein injection with normal saline, Gemcitabine HCl (GemHCl) solution, GemC18 solution, blank PEG-C18 micelles, or GemC18/PEG-C18 micelles. The dose was 0.283 mg of GemHCl or molar equivalent amount of GemC18. All groups received a second dose three days after the first dose, while the GemC18/PEG-C18 micelle group also received a third dose 3 days after the second dose. Tumor sizes were measured with calipers in two perpendicular diameters every day and reported as tumor volume (V=½ [a×b^2], a=longer diameter, b=shorter diameter).

[2] = IC50 of gemcitabine HCl divided by that of the derivatives or derivatives in nanoparticles

| Ratio of IC50 values in TC-1-GR cells (TC-1-GR cells; [2]) | SMILES | IC50 (CCRF-CEM cells) [nM] | IC50 (TC-1 cells) [nM] | IC50 (TC-1-GR cells) [nM] | IC50 (MIA PaCa-2 cells) [nM] | IC50 (PANC-1 cells) [nM] | IC50 (CCRF-CEM-AraC-8C cells) [nM] | solubility in DMSO [1] | IC50 (CCRF-CEM/dCK−/− cells) [nM] | Ratio of IC50 in PANC-1 to that in MIA PaCa-2 (PANC-1 cells) | Ratio of IC50 in CCRF-CEM-AraC-8C to that in CCRF-CEM (CCRF-CEM-AraC-8C cells) | Ratio of IC50 values in CEM-AraC-8C cells (CCRF-CEM-AraC-8C cells; [2]) | B16-F10 tumor growth (tumor volume) (B16-F10 melanoma tumor) |
| --- | --- | --- | --- | --- | --- | --- | --- | --- | --- | --- | --- | --- | --- |
| – | CCCCCCCCCCCCCCCCCC(=O)OCC(Cl)COP(=O)(O)OC[C@H]1O[C@@H](n2ccc(N)nc2=O)C(F)(F)[C@@H]1O (mixture of isomers) [Compound 12, 2′-2′-difluoro-2′-deoxycytidine 5′(3-stearoyloxy-2-rac-chloropropyl)phosphate] | 49.8 ± 5.9 | 430 ± 52.4 | 76300 ± 10500 | 245 ± 38 | 58700 ± 14200 | 1770 ± 533 | – | – | – | – | – | – |
| – | CCCCCCCCCCCCCCCCCC(=O)Nc1ccn([C@@H]2O[C@H](COP(=O)(O)O)C(O)C2(F)F)c(=O)n1 (stereo in doubt) [Compound 13, 4-N-Octadecanoyl-2′-2′-difluoro-2′-deoxycytidine 5′-sodiumphosphate] | – | – | – | – | – | – | not sufficiently solubilized in DMSO | – | – | – | – | – |
| – | CCCCCCCCCCCCCCCCCCOP(=O)(O)OC[C@H]1O[C@@H](n2ccc(NC(C)=O)nc2=O)C(F)(F)[C@@H]1O [Compound 9, 4-N-acetyl-2′-2′-difluoro-2′-deoxycytidine-5′-octadecylphosphate] | 58.1 ± 18.5 | 211 ± 85 | 9300 ± 2500 | 205 ± 39.5 | 38500 ± 5700 | 575 ± 97.1 | – | – | – | – | – | – |
| 5 | CCCCCCCCCCCCCCCCCC(=O)Nc1ccn([C@@H]2OC(CO)C(O)C2(F)F)c(=O)n1 (stereo partly shown) [GemC18, 4-N-stearoyl gemcitabine] | 19.4 ± 13.3 | 132 ± 17.2 | 7700 ± 2400 | 133 ± 60.4 | 6000 ± 1100 | 369 ± 235 | – | 47300 ± 8700 | 45 | 19 | 2.7 | not significant different from that in mice that received normal saline |
